Series [1] deals with T1, BFP-aq (Aequorea victoria, UniProt P07164). Kind of series: biochemical. To be noted: for Luminescence activity (%) Imax: 50 mM Tris-HCl pH 8.0, 25° C., coelenterazine 1 μg, no compound = 100%. Details: The recombinant apoaequorins encoded by piP-HE is composed of 191 amino acids, whose N-terminus starts from Ala-Asn-Ser-; made in house; host or cells: E. coli strain WA802. The class given is biochemical. How it is done: (§1) Solutions of 50 mM Tris-HCl (pH 8.0), each containing various commercial organic compounds shown in Table 3, were prepared and pre-warmed at 25° C. The substrate coelenterazine (1 μg) was added to the solutions (200 μl) containing each of these compounds.

For series [2] the following is noted: cited from earlier work.
Series [3] addresses T2, BFP-aq, luciferase with fluorescence activity derived from aequorin (recombinant apoaequorin, SEQ ID NO: 1 with N-terminal Val replaced by Ala-Asn-Ser; complex with coelenteramide and calcium ions) (Aequorea victoria, UniProt P02592).
T2 construct: The recombinant apoaequorins encoded by piP-HE is composed of 191 amino acids, whose N-terminus starts from Ala-Asn-Ser-; made in house; host or cells: E. coli strain WA802 (expression vector piP-HE)
T2 sequence (P02592 with tags, fused parts or gaps): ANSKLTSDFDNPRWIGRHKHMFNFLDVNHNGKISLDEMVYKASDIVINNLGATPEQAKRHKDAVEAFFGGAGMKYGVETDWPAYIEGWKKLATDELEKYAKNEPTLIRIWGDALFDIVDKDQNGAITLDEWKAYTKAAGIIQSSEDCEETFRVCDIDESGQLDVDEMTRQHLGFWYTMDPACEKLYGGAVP
Description: Enhancing effect of organic compounds on BFP-aq luminescence with coelenterazine as substrate (Table 4). The series is classed as biochemical. To be noted: pH 8.0, 25° C., no addition = 100%; for activity at 30000 µM: 30 mM compound; for activity at 150000 µM: 150 mM compound; for activity at 300000 µM: 300 mM compound; for activity at 3 M: 3000 mM compound.
From the text: To obtain recombinant apoaequorins, the apoaequorin gene expression vector piP-HE (Japanese Laid-Open Application No. 1989-132397) constructed from pAQ440 harboring the apoaequorin gene (Japanese Laid-Open Application No. 1986-135586) was used. The recombinant apoaequorins encoded by piP-HE is composed of 191 amino acids, whose N-terminus starts from Ala-Asn-Ser-(Val of the N-terminus of SEQ ID NO: 1 in the sequence listing was replaced by Ala-Asn-Ser-).
In a VIVASPIN 2 column, the concentrated aequorin solution was overlaid with 0.9 ml of 50 mM Tris-HCl (pH 7.6) containing 5 mM calcium chloride (Wako Pure Chemicals Industries, Ltd.) and 2 mM dithiothreitol (Wako Pure Chemicals Industries, Ltd.) to trigger continuous light emission and the column was allowed to stand at […] for 24 hours or longer. […] Further, 2 ml of 50 mM Tris-HCI (pH 7.6) containing 5 mM calcium chloride (Wako Pure Chemicals Industries, Ltd.) and 2 mM dithiothreitol (Wako Pure Chemicals Industries, Ltd.) was loaded onto the VIVASPIN 2 column and the column was centrifuged under the identical conditions and then washed.
as §1

Series [4] deals with T1, BFP-aq. The class given is biochemical. To be noted: for Relative luminescence activity Imax (%) / Relative luminescence activity Initial velocity (%): substrate 1 μg, BFP-aq 1.2 μg, pH 8.0, coelenterazine without imidazole = 100%. Details: The recombinant apoaequorins encoded by piP-HE is composed of 191 amino acids, whose N-terminus starts from Ala-Asn-Ser-; made in house; host or cells: E. coli strain WA802. Here is the method:
200 μl of this solution was placed in five vessels, to each of which 1 μg of the substrate coelenterazine (CTZ) and its four analogs: h-CTZ, cp-CTZ, hcp-CTZ, f-CTZ were added.

Substrate in series [5]: Oc1ccc(Cc2nc3c(Cc4ccccc4)nc(-c4ccc(O)cc4)cn3c2O)cc1
Description: Light-emitting reaction rate of BFP-aq, Lineweaver-Burk plot (Table 6). The series is classed as biochemical, Aequorea victoria. To be noted: other: coelenterazine, pH 8.0, 25° C.

The mark [6] stands for this setting: pH 8, read-out: Luminescence activity (%) Imax.
The mark [7] stands for this setting: pH 8, read-out: Luminescence activity (%) Initial velocity.
[8] abbreviates: read-out: Luminescence activity, Imax.
[9] abbreviates: read-out: Luminescence activity, initial velocity.

As a reminder, the pKa is the pH at which an ionisable group is half protonated.

Counter-ions that a name gives are not always drawn. Like-named read-outs stand apart in the source and are kept apart here.

Consider `Cc1ncc[nH]1` [2-Methylimidazole], for which, on BFP-aq [1] (setting [6]), the activity at 30000 µM was found to be 63% and the activity at 150000 µM came to 16%. Besides, at BFP-aq [1] (setting [7]), the activity at 30000 µM was 83% and the activity at 150000 µM amounted to 21%.

As for `Cc1c[nH]cn1` [4-Methylimidazole], the activity at 30000 µM on BFP-aq [1] (setting [6]) came to 88%; at BFP-aq [1] (setting [7]), 92%. For the same molecule, the activity at 150000 µM at BFP-aq [1] (setting [6]) is 78%; on BFP-aq [1] (setting [7]) it was 95%. The pKa in series [2] is reported as 7.5.

Take `NC(=O)c1nc[nH]c1N` [5-Amino-imidazole-4-carboxamide/hydrochloride]: the activity at 30000 µM in series [3] (setting [8]) was found to be 64%; in series [3] (setting [9]) it was 48%. For the same molecule, the results for the activity at 150000 µM in series [3] (setting [8]) and in series [3] (setting [9]) were 0% and 2%, respectively. Moreover, the “Luminescence activity (%) Imax” value at BFP-aq [1] (compound 30 mM) is reported as 64%; at BFP-aq [1] (compound 150 mM), 0%.

Turning to `CC(N)=O` [Acetamide/hydrochloride], the activity at 30000 µM is 73% in series [3] (setting [8]) and 132% in series [3] (setting [9]). In addition, the activity at 150000 µM came out at 31% in series [3] (setting [8]) and 44% in series [3] (setting [9]). Moreover, the activity at 300000 µM came to 55% in series [3] (setting [8]) and 95% in series [3] (setting [9]). In addition, the entries for the “Luminescence activity (%) Imax” value at BFP-aq [1] (compound 30 mM), at BFP-aq [1] (compound 150 mM) and at BFP-aq [1] (compound 300 mM) were 73%, 31% and 55%, respectively.

As for `N=C(N)N` [Guanidine/hydrochloride], the activity at 30000 µM in series [3] (setting [8]) amounted to 92%; in series [3] (setting [9]), 130%. Also, the activity at 150000 µM in series [3] (setting [8]) came to 109%; in series [3] (setting [9]) it was 226%. Further, the activity at 300000 µM is 65% in series [3] (setting [8]) and 118% in series [3] (setting [9]). Also, the “Luminescence activity (%) Imax” value at BFP-aq [1] (compound 30 mM) turned out to be 92%; at BFP-aq [1] (compound 150 mM), 109%; on BFP-aq [1] (compound 300 mM), 65%.

Regarding `NCCc1c[nH]cn1` [Histamine], on BFP-aq [1] (setting [6]), the activity at 30000 µM was 69% and the activity at 150000 µM is 22%. At BFP-aq [1] (setting [7]), the activity at 30000 µM amounted to 92% and the activity at 150000 µM came to 26%. In addition, in series [2], the pKa is given as 8.0.

On to `C[C@H](N)C(=O)O` [L-Alanine], for which the activity at 30000 µM amounted to 88% on BFP-aq [1] (setting [6]) and 82% at BFP-aq [1] (setting [7]). Also, the figures for the activity at 150000 µM at BFP-aq [1] (setting [6]) and on BFP-aq [1] (setting [7]) were 77% and 59%, respectively.

With `N=C(N)NCCC[C@H](N)C(=O)O` [L-Arginine], at BFP-aq [1] (setting [6]), the activity at 30000 µM was 62% and the activity at 150000 µM worked out at 1%. On BFP-aq [1] (setting [7]), the activity at 30000 µM worked out at 73% and the activity at 150000 µM is 4%.

Turning to `NCC(=O)O` [L-Glycine], the activity at 30000 µM in series [3] (setting [8]) was found to be 87%; in series [3] (setting [9]) it was 104%. Besides, the activity at 150000 µM amounted to 83% in series [3] (setting [8]) and 78% in series [3] (setting [9]). Moreover, the “Luminescence activity (%) Imax” value on BFP-aq [1] (compound 30 mM) was 87%; on BFP-aq [1] (compound 150 mM), 83%. Besides, the pKa in series [2] is given as 6.0.

`N[C@@H](Cc1c[nH]cn1)C(=O)O` [L-Histidine]: at BFP-aq [1] (setting [6]), the activity at 30000 µM came to 37% and the activity at 150000 µM worked out at 5%. On BFP-aq [1] (setting [7]), the activity at 30000 µM was 82% and the activity at 150000 µM worked out at 27%.

In the case of `NCCCC[C@H](N)C(=O)O` [L-Lysine], on BFP-aq [1] (setting [6]), the activity at 30000 µM was 60% and the activity at 150000 µM amounted to 1%. On BFP-aq [1] (setting [7]), the activity at 30000 µM came out at 66% and the activity at 150000 µM turned out to be 10%.

With `CCN(CC)CC` [Triethylamine], the activity at 30000 µM at BFP-aq [1] (setting [6]) and at BFP-aq [1] (setting [7]) was 68% throughout. In addition, the activity at 150000 µM worked out at 8% at BFP-aq [1] (setting [6]) and 12% at BFP-aq [1] (setting [7]).

Consider `NC(N)=O` [Urea], for which the activity at 30000 µM was 84% in series [3] (setting [8]) and 113% in series [3] (setting [9]). In addition, the results for the activity at 150000 µM in series [3] (setting [8]) and in series [3] (setting [9]) were 89% and 104%, respectively. The activity at 3 M in series [3] (setting [8]) turned out to be 29%; in series [3] (setting [9]), 57%. In addition, the “Luminescence activity (%) Imax” value was determined as 29% on BFP-aq [1], 84% at BFP-aq [1] (compound 30 mM) and 89% at BFP-aq [1] (compound 150 mM).

For the molecule `O=C(O)/C=C/c1c[nH]cn1` [Urocanic acid], the activity at 30000 µM was determined as 44% on BFP-aq [1] (setting [6]) and 31% at BFP-aq [1] (setting [7]). The pKa in series [2] is given as 5.8.

For the molecule `O=c1c(Cc2ccc(O)cc2)nc2c(CC3CCCC3)[nH]c(-c3ccc(O)cc3)cn1-2` [cp-Coelenterazine], at BFP-aq [4], the “Suitability as substrate in the BFP-aq light-emitting reaction system” value (“Suitability as substrate” below) was “served as effective substrates”. The “Relative luminescence activity Imax (%)” value on BFP-aq [4] (with 150 mM imidazole) turned out to be 138%; at BFP-aq [4] (without imidazole), 54%. Moreover, the entries for the “Relative luminescence activity Initial velocity (%)” value on BFP-aq [4] (with 150 mM imidazole) and on BFP-aq [4] (without imidazole) were 535% and 152%, respectively.

Take `O=c1c(Cc2ccc(F)cc2)nc2c(Cc3ccccc3)[nH]c(-c3ccc(O)cc3)cn1-2` [f-Coelenterazine]: the “Suitability as substrate” value on BFP-aq [4] is “served as effective substrates”.

For `O=c1c(Cc2ccccc2)nc2c(Cc3ccccc3)[nH]c(-c3ccc(O)cc3)cn1-2` [h-Coelenterazine], the “Suitability as substrate” value on BFP-aq [4] was “served as effective substrates”.

Turning to `O=c1c(Cc2ccccc2)nc2c(CC3CCCC3)[nH]c(-c3ccc(O)cc3)cn1-2` [hcp-Coelenterazine], the “Suitability as substrate” value at BFP-aq [4] is listed as “served as effective substrates”. Besides, at BFP-aq [4] (with 150 mM imidazole), the “Imax relative to coelenterazine without imidazole” value was 4 fold and the “Velocity of light-emitting reaction relative to coelenterazine without imidazole” value was found to be 25 fold.

B1: BFP-aq, luciferase with fluorescence activity derived from aequorin (recombinant apoaequorin, SEQ ID NO: 1 with N-terminal Val replaced by Ala-Asn-Ser; complex … (protein)
chain: MTSKQYSVKLTSDFDNPRWIGRHKHMFNFLDVNHNGKISLDEMVYKASDIVINNLGATPEQAKRHKDAVEAFFGGAGMKYGVETDWPAYIEGWKKLATDELEKYAKNEPTLIRIWGDALFDIVDKDQNGAITLDEWKAYTKAAGIIQSSEDCEETFRVCDIDESGQLDVDEMTRQHLGFWYTMDPACEKLYGGAVP
notes: The recombinant apoaequorins encoded by piP-HE is composed of 191 amino acids, whose N-terminus starts from Ala-Asn-Ser-; made in house; host or cells: E. coli strain WA802 (expression vector piP-HE)
As for B1, the results for the Km in series [5] (with 150 mM imidazole) and in series [5] (without imidazole) were 9.2 μM μM and 9.6 μM μM, respectively.

(Values after patent US7396655B2, “Method for enhancing activity of luciferase with fluorescence activity” (Chisso Corporation, priority 2005, dated 2008).)
